38 molecules from patent publication US8003649B2 (AstraZeneca AB, priority 2007, dated 2011) can be followed below.

Bounds are passed on as bounds.

The assay concerns the target T1, Androgen Receptor (AR) (Homo sapiens, UniProt P10275, T878A).
T1 construct: cell based immuno-fluorescence assay using the LNCaP prostate epithelial cell line; endogenous in cells; host or cells: LNCaP clone FGC (ATCC CRL-1740)
T1 sequence (P10275 1-920 T878A): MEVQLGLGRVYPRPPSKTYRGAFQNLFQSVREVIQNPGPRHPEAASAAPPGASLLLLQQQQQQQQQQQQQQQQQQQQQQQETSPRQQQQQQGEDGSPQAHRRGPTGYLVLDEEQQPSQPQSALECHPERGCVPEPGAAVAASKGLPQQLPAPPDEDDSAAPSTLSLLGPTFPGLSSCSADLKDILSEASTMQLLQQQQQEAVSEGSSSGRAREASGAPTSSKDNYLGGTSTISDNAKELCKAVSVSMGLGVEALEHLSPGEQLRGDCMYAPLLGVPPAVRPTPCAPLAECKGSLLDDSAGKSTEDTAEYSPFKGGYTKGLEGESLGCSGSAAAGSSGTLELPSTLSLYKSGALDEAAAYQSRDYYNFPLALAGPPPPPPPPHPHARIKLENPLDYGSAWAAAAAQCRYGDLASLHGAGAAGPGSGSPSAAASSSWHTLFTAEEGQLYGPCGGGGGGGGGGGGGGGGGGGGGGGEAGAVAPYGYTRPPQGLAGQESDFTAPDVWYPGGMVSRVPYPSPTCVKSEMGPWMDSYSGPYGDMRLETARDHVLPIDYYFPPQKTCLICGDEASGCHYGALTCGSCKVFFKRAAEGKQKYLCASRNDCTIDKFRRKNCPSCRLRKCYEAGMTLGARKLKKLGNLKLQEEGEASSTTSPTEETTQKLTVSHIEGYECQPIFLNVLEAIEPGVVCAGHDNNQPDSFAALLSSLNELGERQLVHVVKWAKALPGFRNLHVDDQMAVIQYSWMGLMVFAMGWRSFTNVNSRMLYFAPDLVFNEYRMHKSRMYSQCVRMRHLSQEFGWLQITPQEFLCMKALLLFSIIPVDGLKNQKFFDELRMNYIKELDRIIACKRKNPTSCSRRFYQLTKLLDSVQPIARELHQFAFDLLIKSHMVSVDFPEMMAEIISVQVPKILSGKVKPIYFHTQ
In words: LNCaP Androgen Receptor Down-regulation Cell Assay (immunofluorescence end point). It counts as cell-based. Conditions: LNCaP prostate carcinoma cells, compound incubation 20-22 hours, 50% reduction of the AR signal; read-out: Androgen Receptor Down-regulation Assay (a) IC50/μM. Put shortly: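 AR loss reported as IC50 from curve fits of fluorescence dose-response data, with AR immunostained and read by laser-scanning cytometry. Compound exposure was 20-22 h at 37° C in LNCaP cells grown in 5% charcoal-stripped FBS and plated overnight beforehand.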
Regarding `COc1ccncc1CN1CC2CN(c3ccc4nnc(C(F)(F)F)n4n3)CC2C1` (centres unmarked) [Example 803], the DC50 was found to be 7 µM. As to `C[C@H](c1ccc(F)cc1)N1CCN(c2ccc3nnc(C(F)F)n3n2)CC1` [Example 269, 3-(difluoromethyl)-6-[4-[(1R)-1-(4-fluorophenyl)ethyl]piperazin-1-yl][1,2,4]triazolo[4,3-b]pyridazine], the DC50 was 2 µM. In the case of `O=[N+]([O-])c1ccc(CN2CCN(c3ccc4nnc(C(F)(F)F)n4n3)CC2)cc1` [Example 111, 6-[4-[(4-nitrophenyl)methyl]piperazin-1-yl]-3-(trifluoromethyl)-[1,2,4]triazolo[4,3-b]pyridazine], the DC50 was determined as 0.77 µM. As for `Fc1cccc(CN2CCN(c3ccc4nnc(C(F)F)n4n3)CC2)c1F` [Example 256], the DC50 came out at 7.4 µM.

Consider `CSc1nnc2ccc(N3CCN(C(c4ccccc4)c4ccccc4)CC3)nn12` [Example 9, 6-(4-benzhydrylpiperazin-1-yl)-3-methylsulfanyl-[1,2,4]triazolo[4,3-b]pyridazine], for which the DC50 was found to be 1.7 µM.

As to `Fc1cccc(CN2CCN(c3ccc4nnc(C(F)(F)F)n4n3)CC2)c1C(F)(F)F` [Example 761], the DC50 turned out to be 1.5 µM.

For `FC(F)(F)c1nnc2ccc(N3CCN(Cc4ccc(Oc5ccc(Cl)cc5)cc4)CC3)nn12` [Example 132, 6-[4-[[4-(4-chlorophenoxy)phenyl]methyl]piperazin-1-yl]-3-(trifluoromethyl)-[1,2,4]triazolo[4,3-b]pyridazine], the DC50 came to 2.6 µM. `CN1CCN(CCCC(=O)Nc2ccc(C3CCN(c4ccc5nnc(C(F)(F)F)n5n4)CC3)cc2)CC1` [Example 666]: the DC50 stood at 0.94 µM. Under `CS(=O)(=O)c1cccc(CN2CCN(c3ccc4nnc(C(F)(F)F)n4n3)CC2)c1` [Example 74, 6-[4-[(3-methylsulfonylphenyl)methyl]piperazin-1-yl]-3-(trifluoromethyl)-[1,2,4]triazolo[4,3-b]pyridazine] stands 5.6 µM; under `FC(F)C(F)(F)c1nnc2ccc(N3CCN(C(c4ccccc4)c4ccccc4)CC3)nn12` [Example 1, 6-(4-benzhydrylpiperazin-1-yl)-3-(1,1,2,2-tetrafluoroethyl)-[1,2,4]triazolo[4,3-b]pyridazine], 3.4 µM. Then `C[C@@H]1CN(c2ccc3nnc(C(F)(F)F)n3n2)CCN1Cc1ccncc1` [Example 828, 6-[(3R)-3-methyl-4-(pyridin-4-ylmethyl)piperazin-1-yl]-3-(trifluoromethyl)[1,2,4]triazolo[4,3-b]pyridazine], with 9.5 µM; and `FC(F)(F)c1ccc(CN2CCCN(c3ccc4nnc(C(F)(F)F)n4n3)CC2)cc1` [Example 168, 3-(trifluoromethyl)-6-[4-[[4-(trifluoromethyl)phenyl]methyl]-1,4-diazepan-1-yl]-[1,2,4]triazolo[4,3-b]pyridazine], with 1.6 µM.

Regarding `FC(F)(F)c1nnc2ccc(N3CC[C@@H](Oc4ccncc4)C3)nn12` [Example 577, 6-[(3R)-3-(pyridin-4-yloxy)pyrrolidin-1-yl]-3-(trifluoromethyl)[1,2,4]triazolo[4,3-b]pyridazine], the DC50 amounted to 5 µM. Turning to `COc1cccc(OC2CCN(c3ccc4nnc(C(F)(F)F)n4c3)CC2)c1` [Example 806, 6-[4-(3-methoxyphenoxy)piperidin-1-yl]-3-(trifluoromethyl)[1,2,4]triazolo[4,3-a]pyridine], the DC50 worked out at 2.3 µM. `CN1CCC(NC(=O)c2cccc(OC3CCN(c4ccc5nnc(C(F)(F)F)n5n4)CC3)c2)CC1` [Example 703]: the DC50 was 5.5 µM. Then `FC(F)(F)c1nnc2ccc(N3CCN(c4noc(-c5ccccc5)n4)CC3)nn12` [Example 275], with 6 µM; and `FC(F)(F)c1nnc2ccc(N3CCN(Cc4cscn4)CC3)nn12` [Example 61, 6-[4-(1,3-thiazol-4-ylmethyl)piperazin-1-yl]-3-(trifluoromethyl)-[1,2,4]triazolo[4,3-b]pyridazine], with 7.4 µM. Then `FC(F)(F)c1nnc2ccc(N3C[C@@H]4[C@H](C3)[C@H]4NCc3cccc(Cl)c3)nn12` [Example 555], with 1.4 µM; and `FC(F)(F)c1cccc(O[C@@H]2CCN(c3ccc4nnc(C(F)(F)F)n4n3)C2)c1` [Example 583], with 4.1 µM; and `Fc1cnccc1C1=CCN(c2ccc3nnc(C(F)(F)F)n3n2)CC1` [Example 606], with 2.7 µM. Then `COc1ccc(Oc2cccc(CN3CCN(c4ccc5nnc(C(F)(F)F)n5n4)CC3)c2)cc1` [Example 120, 6-[4-[[3-(4-methoxyphenoxy)phenyl]methyl]piperazin-1-yl]-3-(trifluoromethyl)-[1,2,4]triazolo[4,3-b]pyridazine], with 1.7 µM. On to `CC(C)OCC1CCN(c2ccc3nnc(C(F)(F)F)n3n2)CC1` [Example 298], for which the DC50 is 5.7 µM.

Regarding `CS(=O)(=O)c1cc(F)cc(CN2CCN(c3ccc4nnc(C(F)F)n4n3)CC2)c1` [Example 859, 3-(difluoromethyl)-6-[4-[3-fluoro-5-(methylsulfonyl)benzyl]piperazin-1-yl][1,2,4]triazolo[4,3-b]pyridazine], the DC50 was more than 33 µM. On to `Fc1cccc(CN2CCN(c3ccc4nnc(C(F)(F)F)n4n3)CC2)c1Cl` [Example 768], for which the DC50 amounted to 4.7 µM. In the case of `Fc1ccc(CN2CCN(c3ccc4nnc(C(F)F)n4n3)CC2)c(F)c1F` [Example 823], the DC50 stood at 4.7 µM. Under `CN(C)CCOc1ccc(CN2CCN(c3ccc4nnc(C(F)(F)F)n4n3)CC2)cc1` [Example 140, N,N-dimethyl-2-[4-[[4-[3-(trifluoromethyl)-[1,2,4]triazolo[4,3-b]pyridazin-6-yl]piperazin-1-yl]methyl]phenoxy]ethanamine] stands 7.1 µM; under `N#Cc1cnn(CCOc2ccc(N3CCN(c4ccc5nnc(C(F)(F)F)n5n4)CC3)cc2)c1` [Example 848, 1-[2-[4-[4-[3-(trifluoromethyl)[1,2,4]triazolo[4,3-b]pyridazin-6-yl]piperazin-1-yl]phenoxy]ethyl]-1H-pyrazole-4-carbonitrile], 3.5 µM; under `Fc1cccc(CN2CCN(c3ccc4nnc(C(F)(F)F)n4n3)CC(F)(F)C2)c1` [Example 842], 1.1 µM. Under `N#Cc1ccc(OC2CCN(c3ccc4nnc(C(F)(F)F)n4n3)CC2)nc1` [Example 628] stands 2.7 µM. Take `FC(F)(F)c1nnc2ccc(N3CC4CN(Cc5cccnc5Cl)CC4C3)nn12` (centres unmarked) [Example 790]: the DC50 worked out at 2 µM. Under `Nc1ccc(C2CCN(c3ccc4nnc(C(F)(F)F)n4n3)CC2)cc1` [Example 615, 4-[1-[3-(trifluoromethyl)[1,2,4]triazolo[4,3-b]pyridazin-6-yl]piperidin-4-yl]aniline] stands 0.88 µM; under `CC(C)(C)Oc1ccc(CN2CCN(c3ccc4nnc(C(F)(F)F)n4n3)CC2)cc1` [Example 114, 6-[4-[[4-[(2-methylpropan-2-yl)oxy]phenyl]methyl]piperazin-1-yl]-3-(trifluoromethyl)-[1,2,4]triazolo[4,3-b]pyridazine], 6.5 µM. Then `N#Cc1ccc(CN2CCN(c3ccc4nnc(C(F)(F)F)n4c3)CC2)cc1` [Example 187, 4-[[4-[3-(trifluoromethyl)-[1,2,4]triazolo[4,3-a]pyridin-6-yl]piperazin-1-yl]methyl]benzonitrile], with 4.7 µM; and `Fc1cccc(CN2CC=C(c3ccc4nnc(C(F)(F)F)n4n3)CC2)c1` [Example 272, 6-[1-(3-fluorobenzyl)-1,2,3,6-tetrahydropyridin-4-yl]-3-(trifluoromethyl)-[1,2,4]triazolo[4,3-b]pyridazine], with 1.8 µM; and `FC(F)(F)c1nnc2ccc(N3CCN(Cc4cccnc4)CC3)nn12` [Example 81, 6-[4-(pyridin-3-ylmethyl)piperazin-1-yl]-3-(trifluoromethyl)-[1,2,4]triazolo[4,3-b]pyridazine], with 7.2 µM. Then `Cc1cc(CN2CC3CN(c4ccc5nnc(C(F)(F)F)n5n4)CC3C2)ccn1` (centres unmarked) [Example 785, 6-[5-[(2-methylpyridin-4-yl)methyl]hexahydropyrrolo[3,4-c]pyrrol-2(1H)-yl]-3-(trifluoromethyl)[1,2,4]triazolo[4,3-b]pyridazine], with 1.7 µM. Consider `FC(F)(F)c1nnc2ccc(N3CCN(Cc4c[nH]c5ccccc45)CC3)cn12` [Example 807], for which the DC50 was determined as 7.5 µM. For the molecule `FC(F)(F)c1nnc2ccc(N3CCC(c4c[nH]c5ccncc45)CC3)nn12` [Example 326], the DC50 was found to be 2 µM.
